Source: US20250171437A1 (Agios Pharmaceuticals,Inc., priority 2022, published 2025)

Target: T1, human PAH with the R408W mutation (A375 R408W cells) (Homo sapiens, UniProt P00439, R408W)
T1 construct: expressed in transfected cells
T1 sequence (P00439 1-452 R408W): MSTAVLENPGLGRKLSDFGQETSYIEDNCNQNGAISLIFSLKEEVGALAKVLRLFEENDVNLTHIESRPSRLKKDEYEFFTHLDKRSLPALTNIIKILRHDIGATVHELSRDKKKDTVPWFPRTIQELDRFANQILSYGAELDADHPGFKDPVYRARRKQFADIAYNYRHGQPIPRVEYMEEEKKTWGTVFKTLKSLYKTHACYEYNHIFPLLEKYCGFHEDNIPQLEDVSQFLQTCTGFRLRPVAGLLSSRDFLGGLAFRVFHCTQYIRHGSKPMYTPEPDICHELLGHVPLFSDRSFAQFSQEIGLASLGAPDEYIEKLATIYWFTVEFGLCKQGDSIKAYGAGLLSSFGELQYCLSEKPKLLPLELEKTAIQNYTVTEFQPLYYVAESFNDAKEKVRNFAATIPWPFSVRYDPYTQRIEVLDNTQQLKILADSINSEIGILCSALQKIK
Experiment: Cell Based Phenylalanine Flux Assay
Conditions: A375 R408W cells; 24 hrs with compound, then 20 μM sepiapterin and 800 μM 13C9,15N-Phenylalanine for 4 hours; 13C-Tyrosine by LC-MS; average where tested multiple times
Procedure, shortened: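 AC50 is derived from LC-MS of 13C-tyrosine in the media after a 4 h pulse of 800 μM 13C9,15N-phenylalanine plus 20 μM sepiapterin. The A375 R408W PAH cells had received duplicate 10-point, 2-fold compound dilutions (0.5% DMSO) for 24 h beforehand.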

AC50 [nM]	SMILES
1000 to 5000	[2H]C([2H])([2H])OCc1nc(C(F)F)c(C(=O)N2CCc3[nH]cnc3[C@@H]2c2nc3cc(F)ccc3o2)o1 [Example 156, (R)-(4-(difluoromethyl)-2-((methoxy-d3)methyl)oxazol-5-yl)(4-(5-fluorobenzo[d]oxazol-2-yl)-1,4,6,7-tetrahydro-5H-imidazo[4,5-c]pyridin-5-yl)methanone]
500 to 1000	C[C@H](O)c1nc(C(F)F)c(C(=O)N2CCc3[nH]cnc3[C@H]2c2nc3cc(F)ccc3o2)o1 [Example 157, (4-(difluoromethyl)-2-((S)-1-hydroxyethyl)oxazol-5-yl)((S)-4-(5-fluorobenzo[d]oxazol-2-yl)-6,7-dihydro-1H-imidazo[4,5-c]pyridin-5(4H)-yl)methanone]
1000 to 5000	C[C@H](O)c1nc(C(F)F)c(C(=O)N2CCc3[nH]cnc3[C@@H]2c2nc3cc(F)ccc3o2)o1 [Example 158, (4-(difluoromethyl)-2-((S)-1-hydroxyethyl)oxazol-5-yl)((R)-4-(5-fluorobenzo[d]oxazol-2-yl)-6,7-dihydro-1H-imidazo[4,5-c]pyridin-5(4H)-yl)methanone]
≤ 500	CC(C)(C#N)c1nc(C(F)F)c(C(=O)N2CCc3[nH]cnc3[C@H]2c2nc3cc(F)ccc3o2)o1 [Example 159, (S)-2-(4-(difluoromethyl)-5-(4-(5-fluorobenzo[d]oxazol-2-yl)-4,5,6,7-tetrahydro-1H-imidazo[4,5-c]pyridine-5-carbonyl)oxazol-2-yl)-2-methylpropanenitrile]
500 to 1000	CC(C)(C#N)c1nc(C(F)F)c(C(=O)N2CCc3[nH]cnc3[C@@H]2c2nc3cc(F)ccc3o2)o1 [Example 160, (R)-2-(4-(difluoromethyl)-5-(4-(5-fluorobenzo[d]oxazol-2-yl)-4,5,6,7-tetrahydro-1H-imidazo[4,5-c]pyridine-5-carbonyl)oxazol-2-yl)-2-methylpropanenitrile]
≤ 500	O=C(c1ocnc1C(F)(F)F)N1CCc2[nH]cnc2[C@H]1c1nc2ccc(F)cc2o1 [Example 161, (S)-(4-(6-fluorobenzo[d]oxazol-2-yl)-6,7-dihydro-1H-imidazo[4,5-c]pyridin-5(4H)-yl)(4-(trifluoromethyl)oxazol-5-yl)methanone]
1000 to 5000	O=C(c1ocnc1C(F)(F)F)N1CCc2[nH]cnc2[C@@H]1c1nc2ccc(F)cc2o1 [Example 162, (R)-(4-(6-fluorobenzo[d]oxazol-2-yl)-6,7-dihydro-1H-imidazo[4,5-c]pyridin-5(4H)-yl)(4-(trifluoromethyl)oxazol-5-yl)methanone]
≤ 500	O=C(c1ocnc1C(F)F)N1CCc2[nH]cnc2[C@H]1c1nc2ccc(F)cc2o1 [Example 163, (S)-(4-(difluoromethyl)oxazol-5-yl)(4-(6-fluorobenzo[d]oxazol-2-yl)-6,7-dihydro-1H-imidazo[4,5-c]pyridin-5(4H)-yl)methanone]
1000 to 5000	O=C(c1ocnc1C(F)F)N1CCc2[nH]cnc2[C@@H]1c1nc2ccc(F)cc2o1 [Example 164, (R)-(4-(difluoromethyl)oxazol-5-yl)(4-(6-fluorobenzo[d]oxazol-2-yl)-6,7-dihydro-1H-imidazo[4,5-c]pyridin-5(4H)-yl)methanone]
≤ 500	O=C(c1cnn2cc(Br)c(Cl)cc12)N1CCc2[nH]cnc2[C@H]1c1nc2cc(F)ccc2o1 [Example 165, (S)-(6-bromo-5-chloropyrazolo[1,5-a]pyridin-3-yl)(4-(5-fluorobenzo[d]oxazol-2-yl)-6,7-dihydro-1H-imidazo[4,5-c]pyridin-5(4H)-yl)methanone]
≥ 5000	O=C(c1cnn2cc(Br)c(Cl)cc12)N1CCc2[nH]cnc2[C@@H]1c1nc2cc(F)ccc2o1 [Example 166, (R)-(6-bromo-5-chloropyrazolo[1,5-a]pyridin-3-yl)(4-(5-fluorobenzo[d]oxazol-2-yl)-6,7-dihydro-1H-imidazo[4,5-c]pyridin-5(4H)-yl)methanone]
≤ 500	O=C(c1ocnc1C(F)(F)F)N1CCc2[nH]cnc2[C@H]1c1nc2c(F)cccc2o1 [Example 167, (S)-(4-(4-fluorobenzo[d]oxazol-2-yl)-6,7-dihydro-1H-imidazo[4,5-c]pyridin-5(4H)-yl)(4-(trifluoromethyl)oxazol-5-yl)methanone]
1000 to 5000	O=C(c1ocnc1C(F)(F)F)N1CCc2[nH]cnc2[C@@H]1c1nc2c(F)cccc2o1 [Example 168, (R)-(4-(4-fluorobenzo[d]oxazol-2-yl)-6,7-dihydro-1H-imidazo[4,5-c]pyridin-5(4H)-yl)(4-(trifluoromethyl)oxazol-5-yl)methanone]
≤ 500	O=C(c1ocnc1C(F)F)N1CCc2[nH]cnc2[C@H]1c1nc2c(F)cccc2o1 [Example 169, (S)-(4-(difluoromethyl)oxazol-5-yl)(4-(4-fluorobenzo[d]oxazol-2-yl)-6,7-dihydro-1H-imidazo[4,5-c]pyridin-5(4H)-yl)methanone]
500 to 1000	O=C(c1ocnc1C(F)F)N1CCc2[nH]cnc2[C@@H]1c1nc2c(F)cccc2o1 [Example 170, (R)-(4-(difluoromethyl)oxazol-5-yl)(4-(4-fluorobenzo[d]oxazol-2-yl)-6,7-dihydro-1H-imidazo[4,5-c]pyridin-5(4H)-yl)methanone]

Continued, compound first:

SMILES	AC50 [nM]
O=C(c1ocnc1C(F)(F)F)N1CCc2[nH]cnc2[C@@H]1c1nc2ccc(Br)cc2o1 [Example 144, (R)-(4-(6-bromobenzo[d]oxazol-2-yl)-6,7-dihydro-1H-imidazo[4,5-c]pyridin-5(4H)-yl)(4-(trifluoromethyl)oxazol-5-yl)methanone]	≤ 500
O=C(c1ocnc1C(F)F)N1CCc2[nH]cnc2[C@H]1c1nc2ccc(Br)cc2o1 [Example 145, (S)-(4-(6-bromobenzo[d]oxazol-2-yl)-6,7-dihydro-1H-imidazo[4,5-c]pyridin-5(4H)-yl)(4-(difluoromethyl)oxazol-5-yl)methanone]	≤ 500
O=C(c1ocnc1C(F)F)N1CCc2[nH]cnc2[C@@H]1c1nc2ccc(Br)cc2o1 [Example 146, (R)-(4-(6-bromobenzo[d]oxazol-2-yl)-6,7-dihydro-1H-imidazo[4,5-c]pyridin-5(4H)-yl)(4-(difluoromethyl)oxazol-5-yl)methanone]	500 to 1000
O=C(c1ocnc1C(F)(F)F)N1CCc2[nH]cnc2[C@H]1c1nc2cc(Br)ccc2o1 [Example 147, (S)-(4-(5-bromobenzo[d]oxazol-2-yl)-6,7-dihydro-1H-imidazo[4,5-c]pyridin-5(4H)-yl)(4-(trifluoromethyl)oxazol-5-yl)methanone]	≤ 500
O=C(c1ocnc1C(F)(F)F)N1CCc2[nH]cnc2[C@@H]1c1nc2cc(Br)ccc2o1 [Example 148, (R)-(4-(5-bromobenzo[d]oxazol-2-yl)-6,7-dihydro-1H-imidazo[4,5-c]pyridin-5(4H)-yl)(4-(trifluoromethyl)oxazol-5-yl)methanone]	≤ 500
O=C(c1ocnc1C(F)F)N1CCc2[nH]cnc2[C@H]1c1nc2cc(Br)ccc2o1 [Example 149, (S)-(4-(5-bromobenzo[d]oxazol-2-yl)-6,7-dihydro-1H-imidazo[4,5-c]pyridin-5(4H)-yl)(4-(difluoromethyl)oxazol-5-yl)methanone]	≤ 500
O=C(c1ocnc1C(F)F)N1CCc2[nH]cnc2[C@@H]1c1nc2cc(Br)ccc2o1 [Example 150, (R)-(4-(5-bromobenzo[d]oxazol-2-yl)-6,7-dihydro-1H-imidazo[4,5-c]pyridin-5(4H)-yl)(4-(difluoromethyl)oxazol-5-yl)methanone]	≤ 500
C[C@@H](O)c1nc(C(F)F)c(C(=O)N2CCc3[nH]cnc3[C@H]2c2nc3cc(F)ccc3o2)o1 [Example 151, (4-(difluoromethyl)-2-((R)-1-hydroxyethyl)oxazol-5-yl)((S)-4-(5-fluorobenzo[d]oxazol-2-yl)-6,7-dihydro-1H-imidazo[4,5-c]pyridin-5(4H)-yl)methanone]	≤ 500
C[C@@H](O)c1nc(C(F)F)c(C(=O)N2CCc3[nH]cnc3[C@@H]2c2nc3cc(F)ccc3o2)o1 [Example 152, (4-(difluoromethyl)-2-((R)-1-hydroxyethyl)oxazol-5-yl)((R)-4-(5-fluorobenzo[d]oxazol-2-yl)-6,7-dihydro-1H-imidazo[4,5-c]pyridin-5(4H)-yl)methanone]	1000 to 5000
CC(F)(F)c1ncoc1C(=O)N1CCc2[nH]cnc2[C@H]1c1nc2cc(F)ccc2o1 [Example 153, (S)-(4-(1,1-difluoroethyl)oxazol-5-yl)(4-(5-fluorobenzo[d]oxazol-2-yl)-6,7-dihydro-1H-imidazo[4,5-c]pyridin-5(4H)-yl)methanone]	500 to 1000
CC(F)(F)c1ncoc1C(=O)N1CCc2[nH]cnc2[C@@H]1c1nc2cc(F)ccc2o1 [Example 154, (R)-(4-(1,1-difluoroethyl)oxazol-5-yl)(4-(5-fluorobenzo[d]oxazol-2-yl)-6,7-dihydro-1H-imidazo[4,5-c]pyridin-5(4H)-yl)methanone]	1000 to 5000
[2H]C([2H])([2H])OCc1nc(C(F)F)c(C(=O)N2CCc3[nH]cnc3[C@H]2c2nc3cc(F)ccc3o2)o1 [Example 155, (S)-(4-(difluoromethyl)-2-((methoxy-d3)methyl)oxazol-5-yl)(4-(5-fluorobenzo[d]oxazol-2-yl)-1,4,6,7-tetrahydro-5H-imidazo[4,5-c]pyridin-5-yl)methanone]	≤ 500
